Test results: patent publication US20260021138A1, “EXTRACELLULAR VESICLES AND PARTICLES FROM IMMUNE CELLS FOR PROVIDING ANTICANCER ACTIVITY” (LIETUVOS SVEIKATOS MOKSLU UNIVERSITETAS, priority 2022, published 2026)

Tests used:
HROG-36 GBM 3D spheroids = experiment: GBM cell migration area in 3D cell cultures; assay type: cell-based, human; conditions: at higher concentrations
Description: For EV internalisation assessment in 2D GBM cell cultures, AF555-labelled EV solutions in PBS were applied to mixed glial and microglial cultures making a final concentration of 50 μg/mL of total EV protein. The cells were visualised by a fluorescent microscope Zeiss Axio Observer.Z1 (Carl Zeiss, Jena, Germany). For 3D GBM cell cultures, U-bottom 96-well plates were coated with a thin layer of 2% agarose prior to cell seeding. The cells were seeded at a density of 10000 per well, and the plate was centrifuged at 280×g for 7 min. […] The spheroid diameter was monitored under a light microscope on each day of culture (FIG. 17). […]
For EV efficiency on GBM cell migration in 3D GBM cell cultures, microscopic images of the cultures were taken at the start and at the end (72 hours), and the area covered by cells was calculated. […] Using the ImageJ software package, the area occupied by migrating spheroid cells was assessed, and the area of the spheroid at the initial time point was subtracted, as indicated in FIG. 24C. Representative images before and after treatment with U-937-derived macrophage and HMC-3 microglial EVs with and without DOX or TMZ and the same amount of free DOX are presented in FIG. 20-23, and quantitative assessment results—in FIG. 24.

[1] = system: U-937-derived macrophage cell cultures; experiment: Total cell number after poly(I:C) treatment, macrophages; assay type: cell-based, human; conditions: 24 hours after the poly(I:C) treatment; data not shown
Description: CELL CULTURES FOR EV PRODUCTION. Human monocytes U-937 (ATCC, CRL1593.2) were maintained in RPMI-1640 medium with GlutaMAX (Thermo Fisher Scientific) supplemented with 10% exosome-free FBS (Thermo Fisher Scientific) and 1000 IU/mL penicillin-streptomycin (Gibco, Thermo Fisher Scientific). U-937 were grown in T150 (30 mL medium) tissue culture flasks at 37° C. (incubator New Brunswick Galaxy 170S, Eppendorf) until the settled cells covered 65-75% of the vial bottom. For induction of cell differentiation, the cell medium was changed to Macrophage-SFM medium (Thermo Fisher Scientific) with 200 nM phorbol myristate acetate (PMA, Merck) and the cells were left for 24 hours in a Soft Flask. After this, the medium was replaced with Macrophage-SFM without PMA and kept in the incubator for 48 hours.
For TLR-3 pathway stimulation, U-937-derived macrophages and HMC-3 cells were treated with 10 μg/mL poly(I:C) for 1 hour (FIG. 1A, C). For induction of large EV shedding, the stimulation time was increased to 8 hours (FIG. 1B, D). After the treatments, the large EVs were collected by a series of centrifugation. First, the media were centrifuged for 10 min at 800×g to remove cells and large cell debri. Then, the supernatant was centrifuged at 14000×g for 30 minutes to spin down large EVs. The EV pellets were resuspended in PBS by pipetting up and down several times. […]

[2] = system: human microglial cultures (HMC-3); experiment: Total cell number after poly(I:C) treatment, microglia; assay type: cell-based; conditions: 24 hours after the poly(I:C) treatment; data not shown

COc1cccc2c1C(=O)c1c(O)c3c(c(O)c1C2=O)C[C@@](O)(C(=O)CO)C[C@@H]3O[C@H]1C[C@H](N)[C@H](O)[C@H](C)O1 [DOX, doxorubicin]
GBM migration suppression, free drug versus loaded EVs (HROG-36 GBM 3D spheroids): more efficient

poly(I:C)
Total cell numbers decreased by [1]: 15±2%
cell numbers significantly increased by [2]: 22±7%
